Inhibition and inhibition of growth data for 2 compounds are collected here from ChEMBL document CHEMBL4311999, “3-Hydrazinoisatin-based benzenesulfonamides as novel carbonic anhydrase inhibitors endowed with anticancer activity: Synthesis, in vitro biological evaluation and in silico insights” (Eur J Med Chem, 2019).

One experiment concerns HCT-116. Nature of the experiment: Inhibition of clonogenicity in human HCT116 cells assessed as reduction in colony formation treated for 10 days by crystal violet staining. It counts as functional, cell-based.
A further experiment concerns CCRF-CEM. Nature of the experiment: Growth inhibition of human CCRF-CEM cells at 10 uM incubated for 48 hrs by sulforhodamine B assay relative to control. It counts as functional. Conditions: read-out: GI. On the technique in general: The SRB assay estimates cell density from bound dye.
A further experiment has as its system MOLT-4. Nature of the experiment: Growth inhibition of human MOLT4 cells at 10 uM incubated for 48 hrs by sulforhodamine B assay relative to control. It counts as functional. Conditions: MOLT-4, 48 h, read-out: GI.
For another experiment, the system named is EKVX. Nature of the experiment: Growth inhibition of human EKVX cells at 10 uM incubated for 48 hrs by sulforhodamine B assay relative to control. The format is functional. Conditions: read-out: GI.
The test system of another experiment is SR. Nature of the experiment: Growth inhibition of human SR cells at 10 uM incubated for 48 hrs by sulforhodamine B assay relative to control. The format is functional. As to conditions: read-out: GI.
The next experiment relates to HOP-62. Nature of the experiment: Growth inhibition of human HOP62 cells at 10 uM incubated for 48 hrs by sulforhodamine B assay relative to control. The format is functional. As to conditions: HOP-62, 48 h, read-out: GI.
A further experiment relates to NCI-H23. Nature of the experiment: Growth inhibition of human NCI-H23 cells at 10 uM incubated for 48 hrs by sulforhodamine B assay relative to control. It counts as functional. Conditions: NCI-H23, 48 h, read-out: GI.
A further experiment concerns COLO 205. Nature of the experiment: Growth inhibition of human COLO205 cells at 10 uM incubated for 48 hrs by sulforhodamine B assay relative to control. The format is functional. Conditions: COLO 205, 48 h, read-out: GI.
Another experiment relates to HT-29. Nature of the experiment: Growth inhibition of human HT-29 cells at 10 uM incubated for 48 hrs by sulforhodamine B assay relative to control. It counts as functional. Conditions: HT-29, 48 h, read-out: GI.
For another experiment, the system named is KM12. Nature of the experiment: Growth inhibition of human KM12 cells at 10 uM incubated for 48 hrs by sulforhodamine B assay relative to control. It counts as functional. Conditions: KM12, 48 h, read-out: GI.
In a further experiment the test system is LOX IMVI. Nature of the experiment: Growth inhibition of human LOXIMVI cells at 10 uM incubated for 48 hrs by sulforhodamine B assay relative to control. It counts as functional. Conditions: read-out: GI.
The subject of a further experiment is U-251. Nature of the experiment: Growth inhibition of human U251 cells at 10 uM incubated for 48 hrs by sulforhodamine B assay relative to control. It counts as functional. Conditions: U-251, 48 h, read-out: GI.
The next experiment concerns SK-MEL-2. Nature of the experiment: Growth inhibition of human SK-MEL-2 cells at 10 uM incubated for 48 hrs by sulforhodamine B assay relative to control. It counts as functional. As to conditions: SK-MEL-2, 48 h, read-out: GI.
In another experiment the test system is TK-10. Nature of the experiment: Growth inhibition of human TK10 cells at 10 uM incubated for 48 hrs by sulforhodamine B assay relative to control. The format is functional. As to conditions: TK-10, 48 h, read-out: GI.
Another experiment has as its system RXF 393. Nature of the experiment: Growth inhibition of human RXF393 cells at 10 uM incubated for 48 hrs by sulforhodamine B assay relative to control. The format is functional. Conditions: RXF 393, 48 h, read-out: GI.
The test system of the next experiment is OVCAR-5. Nature of the experiment: Growth inhibition of human OVCAR5 cells at 10 uM incubated for 48 hrs by sulforhodamine B assay relative to control. The format is functional. As to conditions: OVCAR-5, 48 h, read-out: GI.
The test system of the next experiment is SK-MEL-5. Nature of the experiment: Growth inhibition of human SK-MEL-5 cells at 10 uM incubated for 48 hrs by sulforhodamine B assay relative to control. It counts as functional. Conditions: SK-MEL-5, 48 h, read-out: GI.
The subject of a further experiment is SK-MEL-28. Nature of the experiment: Growth inhibition of human SK-MEL-28 cells at 10 uM incubated for 48 hrs by sulforhodamine B assay relative to control. Conditions: SK-MEL-28, 48 h, read-out: GI. It counts as functional.
A further experiment relates to SF-268. Nature of the experiment: Growth inhibition of human SF268 cells at 10 uM incubated for 48 hrs by sulforhodamine B assay relative to control. The format is functional. Conditions: SF-268, 48 h, read-out: GI.
Another experiment concerns SNB-19. Nature of the experiment: Growth inhibition of human SNB19 cells at 10 uM incubated for 48 hrs by sulforhodamine B assay relative to control. It counts as functional. As to conditions: SNB-19, 48 h, read-out: GI.
Another experiment deals with MDA-MB-435. Nature of the experiment: Growth inhibition of human MDA-MB-435 cells at 10 uM incubated for 48 hrs by sulforhodamine B assay relative to control. The format is functional. As to conditions: MDA-MB-435, 48 h, read-out: GI.
Another experiment concerns 786-0. Nature of the experiment: Growth inhibition of human 786-0 cells at 10 uM incubated for 48 hrs by sulforhodamine B assay relative to control. The format is functional. Conditions: 786-0, 48 h, read-out: GI.
For a further experiment, the system named is A498. Nature of the experiment: Growth inhibition of human A498 cells at 10 uM incubated for 48 hrs by sulforhodamine B assay relative to control. The format is functional. Conditions: A498, 48 h, read-out: GI.
For another experiment, the system named is UACC-62. Nature of the experiment: Growth inhibition of human UACC62 cells at 10 uM incubated for 48 hrs by sulforhodamine B assay relative to control. It counts as functional. As to conditions: UACC-62, 48 h, read-out: GI.
For a further experiment, the system named is BT-549. Nature of the experiment: Growth inhibition of human BT549 cells at 10 uM incubated for 48 hrs by sulforhodamine B assay relative to control. The format is functional. As to conditions: BT-549, 48 h, read-out: GI.
The test system of a further experiment is MDA-MB-468. Nature of the experiment: Growth inhibition of human MDA-MB-468 cells at 10 uM incubated for 48 hrs by sulforhodamine B assay relative to control. The format is functional. As to conditions: MDA-MB-468, 48 h, read-out: GI.

With `CCOC(=O)CN1C(=O)/C(=N\Nc2ccc(S(N)(=O)=O)cc2)c2cc(Br)ccc21`, the inhibition entry in the experiment with HCT-116 is “Dose-dependent effect”. Moreover, the inhibition of growth at 10 µM in the experiment with CCRF-CEM amounted to 47%; in the experiment with MOLT-4, 23%; in the experiment on EKVX it was 17%; in the experiment on SR it was 25%; in the experiment on HOP-62, 35%; in the experiment on NCI-H23 it was 23%. Further, the inhibition of growth at 10 µM came to 42% in the experiment on COLO 205; 36% in the experiment with HT-29; 30% in the experiment on KM12; 14% in the experiment on LOX IMVI; 14% in the experiment with U-251; 11% in the experiment with SK-MEL-2. The inhibition of growth at 10 µM came out at 14% in the experiment on TK-10; 57% in the experiment on RXF 393; 14% in the experiment on OVCAR-5; 12% with SK-MEL-5; 15% in the experiment on SK-MEL-28.

For the compound `NS(=O)(=O)c1ccc(N/N=C2\C(=O)N(Cc3ccccc3)c3ccc(Cl)cc32)cc1`, the inhibition of growth at 10 µM is 28% with MOLT-4; 40% in the experiment with SR; 36% in the experiment with HOP-62; 35% in the experiment on SF-268; 59% with SNB-19; 18% in the experiment on U-251. Further, the inhibition of growth at 10 µM came out at 21% in the experiment on MDA-MB-435; 55% in the experiment on RXF 393; 52% with 786-0; 22% in the experiment on A498; 13% in the experiment with OVCAR-5; 34% in the experiment with UACC-62. Besides, the results for the inhibition of growth at 10 µM with SK-MEL-5, in the experiment with BT-549 and with MDA-MB-468 were 20%, 19% and 17%, respectively.
